Source: the supplement of paper PMC10307832

How the values were obtained:
Test in all cases: relative viability (nuclei count vs DMSO), 5 days (fraction); higher = more cells survive
Idelalisib + Navitoclax = compound: CC[C@H](Nc1ncnc2[nH]cnc12)c1nc2cccc(F)c2c(=O)n1-c1ccccc1 [Idelalisib] + CC1(C)CCC(c2ccc(Cl)cc2)=C(CN2CCN(c3ccc(C(=O)NS(=O)(=O)c4ccc(N[C@H](CCN5CCOCC5)CSc5ccccc5)c(S(=O)(=O)C(F)(F)F)c4)cc3)CC2)C1 [Navitoclax] (partner 0.5 µM)
Procedure, shortened: (§1)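 Five library-drug doses in √10 steps were combined with a fixed anchor-drug dose, or a single drug was given alone, by pin tool to lung cancer cell lines in 1536-well plates the day after seeding. Nuclei were stained and counted after 5 days. Relative viability is the nuclei count in treated wells over that in vehicle wells, taken as the median of duplicate plates.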

Idelalisib + Vorinostat = compound: CC[C@H](Nc1ncnc2[nH]cnc12)c1nc2cccc(F)c2c(=O)n1-c1ccccc1 [Idelalisib] + O=C(CCCCCCC(=O)Nc1ccccc1)NO [Vorinostat] (partner 1 µM)
Procedure, shortened: as §1

Idelalisib + Trametinib = compound: CC[C@H](Nc1ncnc2[nH]cnc12)c1nc2cccc(F)c2c(=O)n1-c1ccccc1 [Idelalisib] + CC(=O)Nc1cccc(-n2c(=O)n(C3CC3)c(=O)c3c(Nc4ccc(I)cc4F)n(C)c(=O)c(C)c32)c1 [Trametinib] (partner 0.02 µM)
Procedure, shortened: as §1

Pemetrexed + Decitabine = compound: Nc1nc2[nH]cc(CCc3ccc(C(=O)N[C@@H](CCC(=O)O)C(=O)O)cc3)c2c(=O)[nH]1 [Pemetrexed] + Nc1ncn([C@H]2C[C@H](O)[C@@H](CO)O2)c(=O)n1 [Decitabine] (partner 2 µM)
Procedure, shortened: as §1

| Cell Line | relative viability (Idelalisib + Navitoclax; first compound 0.04 µM) | relative viability (Idelalisib + Navitoclax; first compound 0.1265 µM) | relative viability (Idelalisib + Navitoclax; first compound 0.4 µM) | relative viability (Idelalisib + Navitoclax; first compound 1.265 µM) | relative viability (Idelalisib + Navitoclax; first compound 4 µM) | relative viability (Idelalisib + Vorinostat; first compound 0.04 µM) | relative viability (Idelalisib + Vorinostat; first compound 0.1265 µM) | relative viability (Idelalisib + Vorinostat; first compound 0.4 µM) | relative viability (Idelalisib + Vorinostat; first compound 1.265 µM) | relative viability (Idelalisib + Vorinostat; first compound 4 µM) | relative viability (Idelalisib + Trametinib; first compound 0.04 µM) | relative viability (Idelalisib + Trametinib; first compound 0.1265 µM) | relative viability (Idelalisib + Trametinib; first compound 0.4 µM) | relative viability (Idelalisib + Trametinib; first compound 1.265 µM) | relative viability (Idelalisib + Trametinib; first compound 4 µM) | relative viability (Pemetrexed + Decitabine; first compound 0.002 µM) | relative viability (Pemetrexed + Decitabine; first compound 0.006325 µM) | relative viability (Pemetrexed + Decitabine; first compound 0.02 µM) | relative viability (Pemetrexed + Decitabine; first compound 0.06325 µM) | relative viability (Pemetrexed + Decitabine; first compound 0.2 µM) |
| --- | --- | --- | --- | --- | --- | --- | --- | --- | --- | --- | --- | --- | --- | --- | --- | --- | --- | --- | --- | --- |
| NCI-H1355 | 0.982 | 0.947 | 0.701 | 0.774 | 0.667 | 0.628 | 0.662 | 0.512 | 0.612 | 0.548 | 0.305 | 0.38 | 0.41 | 0.467 | 0.284 | 0.33 | 0.354 | 0.336 | 0.332 | 0.355 |
| COR-L23 | 1.07 | 0.965 | 1.05 | 1.11 | 1.02 | 0.535 | 0.396 | 0.396 | 0.535 | 0.421 | 0.603 | 0.639 | 0.538 | 0.62 | 0.578 | 0.419 | 0.465 | 0.554 | 0.225 | 0.188 |
| HCC-44 | 1.01 | 0.925 | 0.871 | 1.07 | 0.927 | 1.19 | 1.08 | 1.12 | 1.22 | 1.12 | 1.07 | 1.04 | 1.08 | 1.06 | 0.941 | 0.854 | 0.909 | 1.02 | 0.922 | 0.905 |
| A-427 | 0.939 | 0.91 | 1.01 | 1.06 | 0.811 | 0.921 | 0.889 | 0.833 | 0.901 | 0.874 | 0.843 | 0.812 | 0.667 | 0.78 | 0.7 | 0.585 | 0.537 | 0.545 | 0.572 | 0.544 |
| NCI-H520 | 0.981 | 0.944 | 0.983 | 1.24 | 0.798 | 0.768 | 0.708 | 0.669 | 0.722 | 0.488 | 0.793 | 0.566 | 0.479 | 0.628 | 0.613 | 0.504 | 0.453 | 0.538 | 0.479 | 0.494 |
| LXF-289 | 0.961 | 0.948 | 0.912 | 1.02 | 0.97 | 0.878 | 0.759 | 0.781 | 0.783 | 0.764 | 0.694 | 0.706 | 0.655 | 0.721 | 0.734 | 0.363 | 0.393 | 0.38 | 0.403 | 0.404 |
| NCI-H2087 | 0.885 | 0.938 | 0.98 | 1.03 | 0.823 | 0.592 | 0.667 | 0.614 | 0.781 | 0.204 | 0.206 | 0.23 | 0.204 | 0.205 | 0.156 | 0.268 | 0.237 | 0.332 | 0.238 | 0.262 |
| NCI-H596 | 1.18 | 0.931 | 0.881 | 0.973 | 0.892 | 0.622 | 0.595 | 0.511 | 0.567 | 0.415 | 0.756 | 0.82 | 0.782 | 0.878 | 0.592 | 0.996 | 1.03 | 0.972 | 0.839 | 0.553 |
| PC-14 | 0.987 | 1.1 | 0.953 | 1.14 | 1.02 | 0.901 | 0.709 | 0.633 | 0.363 | 0.68 | 0.648 | 0.757 | 0.695 | 0.723 | 0.509 | 0.211 | 0.217 | 0.301 | 0.0896 | 0.0739 |
| NCI-H1915 | 0.797 | 0.772 | 0.812 | 0.78 | 0.764 | 0.567 | 0.534 | 0.498 | 0.503 | 0.448 | 0.281 | 0.291 | 0.291 | 0.317 | 0.265 | 0.263 | 0.258 | 0.243 | 0.25 | 0.26 |
| NCI-H647 | 1.17 | 1.1 | 0.981 | 0.837 | 0.745 | 0.686 | 0.435 | 0.546 | 0.247 | 0.141 | 0.431 | 0.485 | 0.423 | 0.354 | 0.239 | 0.263 | 0.366 | 0.515 | 0.39 | 0.233 |
| NCI-H322M | 1.2 | 1.2 | 1.09 | 1.25 | 1.04 | 1.03 | 0.993 | 0.799 | 0.899 | 0.911 | 0.58 | 0.57 | 0.479 | 0.505 | 0.537 | 0.722 | 0.642 | 0.655 | 0.794 | 0.612 |
| NCI-H2170 | 0.665 | 0.613 | 0.524 | 0.598 | 0.509 | 0.732 | 0.805 | 0.761 | 0.716 | 0.669 | 1.05 | 0.941 | 0.851 | 0.893 | 0.805 | 0.436 | 0.48 | 0.458 | 0.462 | 0.459 |
| BEN | 0.0556 | 0.0685 | 0.0581 | 0.0746 | 0.0521 | 0.531 | 0.53 | 0.552 | 0.59 | 0.514 | 1.01 | 0.98 | 0.929 | 0.735 | 0.766 | 0.657 | 0.767 | 0.813 | 0.668 | 0.719 |
| NCI-H2009 | 1.11 | 1.17 | 1.19 | 1.22 | 1.18 | 0.751 | 0.751 | 0.663 | 0.688 | 0.72 | 0.297 | 0.232 | 0.201 | 0.228 | 0.179 | 0.372 | 0.307 | 0.416 | 0.355 | 0.342 |
| LC-2-ad | 0.479 | 0.4 | 0.395 | 0.417 | 0.306 | 0.798 | 0.702 | 0.683 | 0.791 | 0.703 | 0.963 | 0.957 | 0.931 | 1.02 | 0.806 | 0.807 | 0.771 | 0.779 | 0.755 | 0.316 |
